# Tests used:
# Escherichia coli [1] = experiment: Antibacterial activity against aminoglycosides-susceptible Escherichia coli 25922 by double microdilution method; format: functional; settings: ATCC 25922
# [2] = tested on: Staphylococcus epidermidis; experiment: Antibacterial activity against aminoglycosides-susceptible Staphylococcus epidermidis by double microdilution method; format: functional
# Escherichia coli [3] = experiment: Antibacterial activity against aminoglycosides-susceptible Escherichia coli R477-100 by double microdilution method; format: functional
# Bacillus subtilis = experiment: Antibacterial activity against aminoglycosides-susceptible Bacillus subtilis by double microdilution method; format: functional
# Escherichia coli [4] = experiment: Ratio of MIC for aminoglycosides-resistant Escherichia coli BL21 harboring pETSACG1 encode for APH(3')-3a resistance enzyme to MIC for Escherichia coli BL21; format: functional
# Escherichia coli [5] = experiment: Antibacterial activity against Escherichia coli XL1 blue harboring pET9d encode for APH(3')-1a resistance enzyme by double microdilution method; format: functional
# Escherichia coli [6] = experiment: Antibacterial activity against aminoglycosides-resistant Escherichia coli BL21 harboring pET11d encode for APH(3')-2b resistance enzyme by double microdilution method; format: functional
# Escherichia coli [7] = experiment: Antibacterial activity against aminoglycosides-resistant Escherichia coli BL21 harboring pETSACG1 encode for APH(3')-3a resistance enzyme by double microdilution method; format: functional
# Escherichia coli [8] = experiment: Antibacterial activity against Escherichia coli XL1 blue by double microdilution method; format: functional
# Escherichia coli [9] = experiment: Ratio of MIC for Escherichia coli XL1 blue harboring pET9d encode for APH(3')-1a resistance enzyme to MIC for Escherichia coli XL1 blue; format: functional
# Escherichia coli [10] = experiment: Antibacterial activity against kanamycin-resistant Escherichia coli AG100B by double microdilution method; format: functional
# Escherichia coli [11] = experiment: Antibacterial activity against kanamycin-resistant Escherichia coli AG100A by double microdilution method; format: functional
# Escherichia coli [12] = experiment: Ratio of MIC for aminoglycosides-resistant Escherichia coli BL21 harboring pET11d encode for APH(3')-2b resistance enzyme to MIC for Escherichia coli BL21; format: functional
# Escherichia coli [13] = experiment: Antibacterial activity against aminoglycosides-resistant Escherichia coli BL21 harboring pSF815 encode for bifunctional AAC(6')/APH(2\") resistance enzyme by double microdilution method; format: functional
# Escherichia coli [14] = experiment: Antibacterial activity against Escherichia coli BL21 by double microdilution method; format: functional
# Escherichia coli [15] = experiment: Ratio of MIC for aminoglycosides-resistant Escherichia coli BL21 harboring pSF815 encode for bifunctional AAC(6')/APH(2\") resistance enzyme to MIC for Escherichia coli BL21; format: functional
# Escherichia coli [16] = experiment: Inhibition of protein translation in Escherichia coli S30 cell extract using circular DNA with pBESTluc after 60 mins; format: functional; settings: Escherichia coli, 1 h; read-out: IC50
# [17] = Inhibition of Escherichia coli topoisomerase 4 using supercoiled pBR322 DNA as substrate by agarose gel electrophorosis method; settings: read-out: IC50
# [18] = Inhibition of Escherichia coli DNA gyrase using relaxed pBR322 DNA as substrate by agarose gel electrophorosis method; settings: read-out: IC50
Compound,MIC (Escherichia coli [1]) [µg/mL],MIC [2] [µg/mL],MIC (Escherichia coli [3]) [µg/mL],MIC (Bacillus subtilis) [µg/mL],Ratio (Escherichia coli [4]),MIC (Escherichia coli [5]) [µg/mL],MIC (Escherichia coli [6]) [µg/mL],MIC (Escherichia coli [7]) [µg/mL],MIC (Escherichia coli [8]) [µg/mL],Ratio (Escherichia coli [9]),MIC (Escherichia coli [10]) [µg/mL],MIC (Escherichia coli [11]) [µg/mL],Ratio (Escherichia coli [12]),MIC (Escherichia coli [13]) [µg/mL],MIC (Escherichia coli [14]) [µg/mL],Ratio (Escherichia coli [15]),IC50 (Escherichia coli [16]) [µM],IC50 [17] [µM],IC50 [18] [µM]
NC[C@H]1O[C@H](O[C@H]2[C@H](O)[C@@H](O[C@H]3O[C@H](CO)[C@@H](O)[C@H](N)[C@H]3O)[C@H](NC(=O)CCCc3cn(CC(O)CN4CCN(c5cc6c(cc5F)c(=O)c(C(=O)O)cn6C5CC5)CC4)nn3)C[C@@H]2N)[C@H](O)[C@@H](O)[C@@H]1O (stereo partly specified),6,24,12,1.5,,,,,,,,,,,,,,,
NC[C@H]1O[C@H](O[C@H]2[C@H](O)[C@@H](O[C@H]3O[C@H](CO)[C@@H](O)[C@H](N)[C@H]3O)[C@H](NC(=O)CCc3cn(Cc4cccc(CN5CCN(c6cc7c(cc6F)c(=O)c(C(=O)O)cn7C6CC6)CC5)c4)nn3)C[C@@H]2N)[C@H](O)[C@@H](O)[C@@H]1O,18,18,24,9,2,24,1.5,1.5,12,2,48,1.5,2,1.5,0.8,2,,,
NC[C@H]1O[C@H](O[C@H]2[C@H](O)[C@@H](O[C@H]3O[C@H](CO)[C@@H](O)[C@H](N)[C@H]3O)[C@H](NC(=O)CCc3cn(CC(O)CN4CCN(c5cc6c(cc5F)c(=O)c(C(=O)O)cn6C5CC5)CC4)nn3)C[C@@H]2N)[C@H](O)[C@@H](O)[C@@H]1O (stereo partly specified),6,36,12,9,1,24,1.5,1.5,24,1,24,1.5,1,1.5,0.2,1,,,
NC[C@H]1O[C@H](O[C@H]2[C@H](O)[C@@H](O[C@H]3O[C@H](CO)[C@@H](O)[C@H](N)[C@H]3O)[C@H](NC(=O)CCc3cn(Cc4ccc(CN5CCN(c6cc7c(cc6F)c(=O)c(C(=O)O)cn7C6CC6)CC5)cc4)nn3)C[C@@H]2N)[C@H](O)[C@@H](O)[C@@H]1O,24,18,36,6,1,24,1.5,0.8,24,1,48,3,2,1.5,0.8,2,,,
NC[C@H]1O[C@H](O[C@H]2[C@H](O)[C@@H](O[C@H]3O[C@H](CO)[C@@H](O)[C@H](N)[C@H]3O)[C@H](NC(=O)CCc3cn(CCOCCN4CCN(c5cc6c(cc5F)c(=O)c(C(=O)O)cn6C5CC5)CC4)nn3)C[C@@H]2N)[C@H](O)[C@@H](O)[C@@H]1O,6,24,12,9,1,12,0.8,0.8,12,1,24,0.75,1,0.8,0.8,1,,,
NC[C@H]1O[C@H](O[C@H]2[C@H](O)[C@@H](O[C@H]3O[C@H](CO)[C@@H](O)[C@H](N)[C@H]3O)[C@H](NCc3cn(CCN4CCN(c5cc6c(cc5F)c(=O)c(C(=O)O)cn6C5CC5)CC4)nn3)C[C@@H]2N)[C@H](O)[C@@H](O)[C@@H]1O,3,6,6,1.5,,,,,,,,,,,0.2,,8.14,,
NC[C@H]1O[C@H](O[C@H]2[C@H](O)[C@@H](O[C@H]3O[C@H](CO)[C@@H](O)[C@H](N)[C@H]3O)[C@H](NC(=O)CCCc3cn(Cc4ccc(CN5CCN(c6cc7c(cc6F)c(=O)c(C(=O)O)cn7C6CC6)CC5)cc4)nn3)C[C@@H]2N)[C@H](O)[C@@H](O)[C@@H]1O,3,6,6,3,1,,0.8,0.8,6,,24,0.75,1,0.8,0.8,1,2.19,,
NC[C@H]1O[C@H](O[C@H]2[C@H](O)[C@@H](O[C@H]3O[C@H](CO)[C@@H](O)[C@H](N)[C@H]3O)[C@H](NC(=O)CCc3cn(CCN4CCN(c5cc6c(cc5F)c(=O)c(C(=O)O)cn6C5CC5)CC4)nn3)C[C@@H]2N)[C@H](O)[C@@H](O)[C@@H]1O,3,18,6,6,3,18,0.4,0.6,24,1,24,0.75,2,0.4,0.8,2,19.2,> 100,9.9
NC[C@H]1O[C@H](O[C@H]2[C@H](O)[C@@H](O[C@H]3O[C@H](CO)[C@@H](O)[C@H](N)[C@H]3O)[C@H](NCc3cn(CCCCCCN4CCN(c5cc6c(cc5F)c(=O)c(C(=O)O)cn6C5CC5)CC4)nn3)C[C@@H]2N)[C@H](O)[C@@H](O)[C@@H]1O,12,24,12,6,1,12,0.8,0.8,12,1,24,1.5,1,0.8,0.8,1,6.46,,
NC[C@H]1O[C@H](O[C@H]2[C@H](O)[C@@H](O[C@H]3O[C@H](CO)[C@@H](O)[C@H](N)[C@H]3O)[C@H](NCc3cn(Cc4cccc(CN5CCN(c6cc7c(cc6F)c(=O)c(C(=O)O)cn7C6CC6)CC5)c4)nn3)C[C@@H]2N)[C@H](O)[C@@H](O)[C@@H]1O,24,18,36,12,1,24,0.8,0.8,12,2,36,1.5,1,0.8,1.5,1,,,

# — ChEMBL document CHEMBL4033618, “Covalently linked kanamycin - Ciprofloxacin hybrid antibiotics as a tool to fight bacterial resistance” (Bioorg Med Chem, 2017)
